From patent US6617343B1, “Hypoglycemic N,N-arylsulfonylglycine compounds” (Eli Lilly and Company, priority 1999, dated 2003)

Assays:
[1] = test system: Male obese-diabetic viable yellow (AvY) mice; experiment: Hypoglycemic efficacy: blood glucose in obese-diabetic viable yellow mice fed compound admixed in chow; format: in vivo; settings: dose .03 weight percent in diet; for % BG14 (BG0 = 100): blood glucose at day 14 as percent of initial value
Description: Male obese-diabetic viable yellow (AvY) mice were divided into two groups of 6 each. One group was fed repelletized purina 5008 Chow and the second group was fed repelletized Purina 5008 Chow, admixed with varying doses of the candidate compound. Blood samples were taken before the experiment was initiated and 7 and 14 days after initiation. Body weight and food consumption were monitored. The blood glucose level after 7 or 14 days of treatment was measured and recorded as a percent of the initial value, compared to the untreated control (first) group. The results are presented in the table 1 below; and include the dose of the candidate compound as a weight percent of the amount incorporated into the diet. Also in the table is a representative value for a positive control (a known hypoglycemic agent reported by a Takeda group [J. Med. Chem., 35, 2617]) administered in the same way as a canditate compound of the present invention.
BG means blood glucose level; BG0 means blood glucose level at day zero and BG14 means blood glucose level at day 14 accordingly.

SMILES	melting point	% BG14 (BG0 = 100) [1] [%]	% BG14 (BG0 = 100), (day 7) ([1]; blood glucose at day 7 as percent of initial value)
CC(C)S(=O)(=O)N(CC(=O)O)c1ccc(OCCc2coc(-c3ccccc3)n2)cc1 [Example 1, N-[4-(2-(Phenyloxazol-4yl)ethoxyl]phenyl)-N-isopropyl Sulfonylglycine]	136 to 139 °C	53.1	–
CS(=O)(=O)N(CC(=O)O)c1ccc(OCCc2coc(-c3ccccc3)n2)cc1 [Example 2, N-4[-(2-(Phenyloxazol-4yl)ethoxy)phenyl]-N-methylsufonyl-glycine]	200 to 201 °C	76.4	–
CS(=O)(=O)N(CC(=O)[O-])c1ccc(OCCc2coc(-c3ccccc3)n2)cc1.[Na+] [Example 3, Sodium N-(4-(2-Phenyl-4-oxazolylethoxy)phenyl)-N-methylsulfonylglycinate]	–	57.9	–
CN(C)S(=O)(=O)N(CC(=O)O)c1ccc(OCCc2coc(-c3ccccc3)n2)cc1 [Example 4, N-[4-(2-(Phenyloxazol-4yl)ethoxy)phenyl]-N-N′N′-dimethyl aminosulfonylglycine]	154 to 156 °C	70.1	–

The next lines start with results.

melting point	SMILES	% BG14 (BG0 = 100) [1] [%]	% BG14 (BG0 = 100), (day 7) ([1]; blood glucose at day 7 as percent of initial value)
147 to 149 °C	O=C(O)CN(c1ccc(OCCc2coc(-c3ccccc3)n2)cc1)S(=O)(=O)Cc1ccccc1 [Example 5, N-[4-(2-(phenyloxazol-4yl)ethoxy)phenyl]-N-phenylmethyl sulfonylglycine]	77.0	–
160 to 165 °C (dec.)	CS(=O)(=O)N(CC(=O)O)c1ccc2oc(Cc3ccc4ccccc4c3)cc2c1 [Example 6, N-[5-(-2-(2-naphthylmethyl)benzofuranyl)]-N-methylsulfonylglycine]	–	93.1 (day 7) %
